Common to all, as to format: functional
Assay [1] is described as follows: Reduction of acetylcholine-induced depolarizing response in Sprague-Dawley rat cortical wedge at 10 uM relative to control. Also noted: scale not given: the % may be the effect or the level left.
The species entered for assay [2] is Rattus norvegicus. In words: Effect on neurochemical transmission in Sprague-Dawley rat cortical wedge assessed as hyperpolarization activity at 10 to 100 uM.
A short description of assay [3]: Reduction of acetylcholine-induced depolarizing response in Sprague-Dawley rat cortical wedge at 50 uM relative to control. Further details: scale not given: the % may be the effect or the level left.
For assay [4], the species on record is Rattus norvegicus. In words: Effect on neurochemical transmission in Sprague-Dawley rat cortical wedge assessed as hyperpolarization activity at 50 to 500 uM.

SMILES strings stand for the structures. The source made the active and inactive calls. The rule behind the calls is not given here.

In the case of `CN1CC[C@@]2(c3cccc4c3N[C@H]3N(C)CC[C@@]43[C@@]34CCN(C)[C@@H]3N(C)c3ccccc34)c3ccccc3N(C)[C@@H]12` [IDIOSPERMULINE], in assay [1], the Activity worked out at 61.2%. For the same compound, the result in assay [2] was Active.
Turning to `CN1CC[C@]2([C@]34CCN(C)[C@H]3Nc3ccccc34)c3ccccc3N[C@H]12` [CHIMONANTHINE], in assay [1], the Activity amounted to 58.3%. For the same compound, the result in assay [2] was Active.
For `CN1CC[C@]23c4ccccc4N[C@H]1[C@]21CCN(C)[C@H]3Nc2ccccc21` [CALYCANTHINE], in assay [3], the Activity turned out to be 20.4%. For the same compound, the outcome in assay [4] was Active.
